# How the values were obtained:
# Details in all cases: 72 h
# [1] = test system: U2OS; assay: relative viability EC50 (midpoint between 100% and the lowest measured viability); higher = less toxic
# [2] = test system: Calu-3; assay: as above
# [3] = test system: HepG2; assay: as above
# [4] = test system: Caco-2; assay: as above
# [5] = test system: Vero E6; assay: as above
# [6] = test system: U2OS; assay: cell viability relative to DMSO; higher = less toxic
# [7] = test system: Calu-3; assay: as above
# [8] = test system: HepG2; assay: as above
# [9] = test system: Caco-2; assay: as above
# [10] = test system: Vero E6; assay: as above
# [11] = test system: U2OS; assay: drug sensitivity score (DSS) for viability; higher = more toxic; extreme values may be limits of the assay
# [12] = test system: Calu-3; assay: as above
# [13] = test system: HepG2; assay: as above
# [14] = test system: Caco-2; assay: as above
# [15] = test system: Vero E6; assay: as above
SMILES,relative viability EC50 [1] [µM],relative viability EC50 [2] [µM],relative viability EC50 [3] [µM],relative viability EC50 [4] [µM],relative viability EC50 [5] [µM],cell viability ([6]; 1 nM) [%],cell viability ([6]; 10 nM) [%],cell viability ([6]; 100 nM) [%],cell viability ([6]; 1000 nM) [%],cell viability ([6]; 10000 nM) [%],cell viability ([7]; 1 nM) [%],cell viability ([7]; 10 nM) [%],cell viability ([7]; 100 nM) [%],cell viability ([7]; 1000 nM) [%],cell viability ([7]; 10000 nM) [%],cell viability ([8]; 1 nM) [%],cell viability ([8]; 10 nM) [%],cell viability ([8]; 100 nM) [%],cell viability ([8]; 1000 nM) [%],cell viability ([8]; 10000 nM) [%],cell viability ([9]; 1 nM) [%],cell viability ([9]; 10 nM) [%],cell viability ([9]; 100 nM) [%],cell viability ([9]; 1000 nM) [%],cell viability ([9]; 10000 nM) [%],cell viability ([10]; 1 nM) [%],cell viability ([10]; 10 nM) [%],cell viability ([10]; 100 nM) [%],cell viability ([10]; 1000 nM) [%],cell viability ([10]; 10000 nM) [%],drug sensitivity score [11],drug sensitivity score [12],drug sensitivity score [13],drug sensitivity score [14],drug sensitivity score [15]
Nc1ncnc2c1ncn2[C@@H]1O[C@H](COP(=O)(O)OP(=O)(O)OP(=O)(O)OP(=O)(O)OC[C@H]2O[C@@H](n3cnc4c(N)ncnc43)[C@H](O)[C@@H]2O)[C@@H](O)[C@H]1O [diadenosine-tetraphosphate],> 10,> 10,> 10,> 10,> 10,94.5,98.1,97.7,97.5,107,106,104,94.9,89.6,92.4,94.6,101,114,102,104,99.4,97.8,99.3,102,107,99,102,96.5,102,97,0,0.1,0,0,0
CC(C)[C@@]1(NC(=O)[C@@H]2C[C@@H]3c4cccc5[nH]cc(c45)C[C@H]3N(C)C2)O[C@@]2(O)[C@@H]3CCCN3C(=O)[C@H](Cc3ccccc3)N2C1=O [dihydroergocristine],> 10,> 10,> 10,> 10,> 10,96.3,100,99.2,98.2,96.4,92.6,97.5,99,93.3,94.9,103,95.1,95.8,100,86.4,105,100,89.3,102,91.7,102,100,102,99,99.5,0,0,0.1,0,0
CC(=O)Oc1cccc(C(=O)O)c1OC(C)=O [dipyrocetyl],> 10,> 10,> 10,> 10,> 10,103,96.8,101,101,101,93.8,92.9,85.2,99.8,86.8,96,95.9,97.8,89.5,96.9,99.9,90.2,100,97,92,101,105,103,99.4,101,0,0,0,0,0
Cc1ccccc1NC(=N)Nc1ccccc1C [ditolylguanidine],> 10,> 10,> 10,> 10,> 10,98.8,104,94.6,102,94.7,103,104,95.8,103,90.4,100,96.1,97.7,94.3,97.9,96.5,100,103,95.6,88.3,96.4,104,95.6,100,95.6,0,0,0,0.2,0
Cc1cc(Oc2ccc3nc(COc4ccc(CC5SC(=O)NC5=O)cc4)n(C)c3c2)cc(C)c1N (stereo not given) [efatutazone],> 10,> 10,> 10,> 10,> 10,98.3,104,97.5,106,97.6,106,102,104,105,99.2,105,99.5,106,104,103,102,97.6,97.1,97.3,97.4,95.4,86,87.5,87.1,85.3,0,0,0,0,3.6
CC(/C=C1\SC(=S)N(CC(=O)O)C1=O)=C\c1ccccc1 [epalrestat],> 10,> 10,> 10,> 10,> 10,99.4,98.1,98.4,103,100,102,96.8,96.7,97.8,107,100,96.4,102,95.6,106,92.6,87.2,95.8,104,98.8,98.3,95.4,94.7,101,102,0,0,0,0,0
C=C1/C(=C\C=C2/CCC[C@]3(C)[C@@H]([C@H](C)/C=C/[C@H](C)C(C)(C)O)CC[C@@H]23)C[C@@H](O)C[C@@H]1O [ercalcitriol],> 10,> 10,> 10,> 10,> 10,104,99.7,99.4,95.7,91.5,106,99.2,101,99,100,104,107,104,104,84.7,97.7,110,106,96.4,94.6,99,99.6,88.5,98.1,94.9,0,0,0.1,0,0
CC(=O)O[C@H]1Cc2ccccc2N(C(N)=O)c2ccccc21 [eslicarbazepine-acetate],> 10,> 10,> 10,> 10,> 10,97.5,93.6,95.2,96.7,101,98.9,98.4,108,102,111,90.4,85.9,95.9,93.8,101,104,99.9,91.3,95.5,89,96.9,99.7,96.3,98.9,98.2,0,0,0,0,0
CC(O)(P(=O)(O)O)P(=O)(O)O [etidronic-acid],> 10,> 10,> 10,> 10,> 10,102,97,98.6,103,102,93.2,103,109,92.1,105,92.3,105,105,100,94.6,103,91.5,103,98.2,104,92.7,91.1,96.1,90.1,95.8,0,0,0,0,0
O=S1(=O)c2cccc3cccc(c23)N1CCCN1CCN(c2ccc(F)cc2)CC1 [fananserin],> 10,> 10,> 10,> 10,> 10,101,102,100,103,99.3,108,89.5,94.2,111,104,96.4,106,107,94,95.4,105,102,100,100,96.7,96.8,96.9,98.1,91.8,94.6,0,0,0,0,0
O=c1c(O)c(-c2ccc(O)c(O)c2)oc2cc(O)ccc12 [fisetin],> 10,> 10,> 10,> 10,> 10,97.5,97.6,102,94.8,98,93.2,90.1,95.3,101,83.2,95,111,104,107,105,96.8,104,95.3,96.8,92.8,93.3,97.9,91.3,97.1,103,0,0.3,0,0,0
Cc1c(-c2ccccc2)oc2c(C(=O)OCCN3CCCCC3)cccc2c1=O [flavoxate],> 10,> 10,> 10,> 10,> 10,97.3,101,93,104,98.8,94.9,91.9,91.7,105,110,102,99.2,104,98.3,96.1,89.1,91.5,92.9,97.1,108,98.1,91.7,96.2,94.1,107,0,0,0,0,0
C[C@@H]1C[C@H]2[C@@H]3C[C@H](F)C4=CC(=O)C=C[C@]4(C)[C@@]3(F)[C@@H](O)C[C@]2(C)[C@@]1(O)C(=O)COC(=O)C(C)(C)C [flumethasone-pivalate],> 10,> 10,> 10,> 10,> 10,106,102,102,97.6,101,113,102,106,94.3,100,82.4,100,87.4,103,82.6,121,103,122,94.9,89,96.6,95.3,101,96.3,84.5,0,0,0.3,0.1,0.6
C[C@@H]1C[C@H]2[C@@H]3C[C@H](F)C4=CC(=O)C=C[C@]4(C)[C@@]3(F)[C@@H](O)C[C@]2(C)[C@@]1(O)C(=O)CO [flumethasone],> 10,> 10,> 10,> 10,> 10,96.6,93.5,98.1,92.1,92.7,95.5,100,106,92.2,101,96.8,109,96.1,91.2,91.8,84.6,94.5,106,94.1,103,107,105,97,105,101,0,0,0,0,0

# From the supplement of paper PMC13380429
